Source: patent publication US20240197686A1, “ANTI-TUMORAL EFFECTIVE BENZIMIDAZOLE ZINC COMPLEXES” (INONU UNIVERSITESI REKTORLUGU, priority 2022, published 2024)
“Also recorded” adds a separate entry of the source.

Key:
[1] = tested on: lung, liver, kidney tissues; experiment: Histology (H-E, light microscope) of lung, liver, kidney tissues of tumour developed nude rats; assay type: in vivo; conditions: for Histopathological damage in lung, liver and kidney tissues (overall): rat, in vivo
Text: After […] operation; lung, liver, kidney tissues were taken and 10% were fixed in formaldehyde, and the sections prepared after their histological tissue follow-up procedures were examined with a light microscope.

Lung Cancer = conditions: lung cancer treatment; cited from earlier work

In the case of N.N.[Cl][Pt][Cl] [Cisplatin, cis-diamminedichloroplatinum II], the Kidney histology ([1]; H-E sections) is reported as “narrowing in glomerular Bowman's space (arrow), tubule epithelial damage; also recorded: Glomerular collapse and vascular congestion”, the Liver histology ([1]; H-E sections) is reported as “hemorage (aster) in parenchymal area, vascular congestion; also recorded: hemorrhagic fields and vascular congestion in parenchyma” and the Lung histology ([1]; H-E sections) is reported as “Secretion (aster) in bronchiole lumen, vascular congestion; also recorded: Secretion accumulations and vascular congestion”. The “Histopathological damage in lung, liver and kidney tissues (overall)” value [1] was “caused tissue damages”, the “Histopathological damage in lung, liver and kidney tissues (overall)” value ([1]; listed as cisplatin) was “causes histopathological damages in lung, liver and kidney tissues” and the surviving (Lung Cancer) was 6 months.
